This is an account of results in US10829493B2, “Compositions and methods for treating KIT- and PDGFRA-mediated diseases” (Blueprint Medicines Corporation, priority 2019, dated 2020).

Where only a bound is given, the exact number is not on record here.

In one data set the target is CYP2D6 (Homo sapiens (Human), UniProt P10635). Kind of data set: CYP inhibition in human liver microsomes, CYP2D6 (dextromethorphan). As to conditions: pooled human liver microsomes, substrate dextromethorphan. In kind it is in vitro ADME. How it is done:
(§1) In vitro studies in human liver microsomes were run according the standard method. […] The samples were then analyzed by LC-MS/MS for the quantification of the probe substrate left after the reaction and the IC50 values were determined by non-linear regression. The substrates for CYP2C9, CYP2D6, CYP3A4 were diclofenac, dextromethorphan and midazolam/testosterone respectively.

The next data set concerns the target CYP2C9 (Homo sapiens (Human), UniProt P11712). The experiment in a line: CYP inhibition in human liver microsomes, CYP2C9 (diclofenac). In kind it is in vitro ADME. As to conditions: pooled human liver microsomes, substrate diclofenac. The method, then:
as §1

Data set [1] in a line: Pharmacokinetics following single intravenous and oral administration in rats. In kind it is in vivo, Sprague-Dawley rats. The method, then: Assessment of pharmacokinetics following single intravenous and oral administration in rats: 3 Sprague-Dawley rats were employed for each compound for each route of administration (iv or oral). For iv administration, 1 mg/kg (dose volume=5 mL/kg) of each compound was administered by intravenous route via […] injection; whereas for oral route, 2.5 mg/kg (dose volume=5 mL/kg) was administered via oral gavage. Blood samples were obtained via tail vein at predose, 0.083, 0.25, 0.5, 1, 2, 4 and 8 hr. In addition, blood samples were also obtained at 24 hr via cardiac puncture (under anesthesia with Isoflurane) for terminal bleeding. All the blood samples were analyzed for the drug concentrations via LC/MS-MS. Pharmacokinetic parameters such as Cmax, Tmax, AUClast, AUCinf, MRTlast, MRTinf, T1/2, Vss and CL were obtained by non-compartmental analysis (NCA). Further, unbound clearance (CLu) was obtained as follows: Clu=Cl/fu,plasma.
% F was calculated as follows: % F=[AUCinf(oral)/Dose]/[AUCinf(iv)/Dose]*100 (Zhivkova & Doytchinova, Molecular Pharmaceuticals 10:3758-68 (2013)).

In data set [2] the target is KIT D816V (Homo sapiens (Human), UniProt P10721, D816V). The experiment in a line: KIT D816V biochemical enzymatic activity assay (EZReader 2 mobility shift). The following applies: at APPKM for ATP, 20 μM ATP, 60 minutes. An excerpt: (§2) PDGFRα and KIT enzymatic activity was monitored using the Perkin Elmer electrophoretic mobility shift technology platform, the EZReader 2.
(§3) Within the linear, steady-state phase of the kinase enzymatic reaction, the mixed pool of phosphorylated (product) and non-phosphorylated (substrate) peptides was passed through the microfluidic system of the PerkinElmer EZ Reader 2, under an applied electric potential difference. The presence of the phosphate group on the product peptide provided a difference in mass and charge between that of the substrate peptide, resulting in a separation of the substrate and product pools in the sample (Perrin et al., Expert Opin Drug Discovery 2010 Jan. 5(1):51-63).
(§4) As the product and substrate peptide mixture passes the lasers within the instrument, these pools are detected (λex=488 nm, λem=568 nm) and resolved as separate peaks. The ratio between these peaks reflects the activity of the compound at that concentration, in that well, under those conditions.
(§5) All test articles were dissolved in 100% DMSO at a stock concentration of 10 mM. A 100×, 10-point, 4-fold serial dilution of all test compounds was created in 100% DMSO, starting at a relevant concentration, usually 1 mM. A volume of 0.130 μL of each concentration was transferred to the relevant well of a 384-well assay plate (Greiner 781 201) using a TTPLabtech Mosquito nano-liter dispenser. Using the Multidrop, the remaining constituents of the reaction were then added to the 0.130 μL of compound as follows:
The plate was read on a Caliper EZReader 2.

The target of the next data set is PDGFRα D842V (Homo sapiens (Human), UniProt P16234, D842V). The experiment in a line: PDGFRα D842V biochemical enzymatic activity assay (EZReader 2 mobility shift). As to conditions: at APPKM for ATP, 25 μM ATP, 90 minutes.
Source text: as §2, §3, §4
Inhibition of KIT (D816V) PDGFRα (D842V) Mutant Biochemical Enzymatic Activity
as §5
The reaction was stopped by the addition of 70 μl of Stop buffer (100 mM HEPES pH 7.5, 0.015% Brij 35, 35 mM EDTA and 0.2% of Coating Reagent 3, Caliper Lifesciences). The plate was read on a Caliper EZReader 2.

In data set [3] the target is KIT D816V (Homo sapiens (Human), UniProt P10721, D816V/V560G). The experiment in a line: HMC1.2 autophosphorylation assay (phospho-Y719 KIT AlphaLISA). In kind it is cell-based. As to conditions: HMC1.2 cell line, KIT autophosphorylation at tyrosine 719, 90 minutes; read-out: KIT (P-KIT HMC1.2 (nM)). The method, then: 10,000 HMC1.2 cells were incubated in 22 μL culture media (phenol-red free IMDM, no serum) in each well of a 384-well plate and serum starved overnight in a tissue culture incubator (5% CO2, 37° C.). […] 10 μL of 100 μg/mL streptavidin donor beads (Perkin Elmer) were added to each well, blocked from light with solid black adhesive and shaken at 300 rpm at room temperature for 2 hours. Fluorescence signal was obtained on Envision (Perkin Elmer) by AlphaScreen 384 well HTS protocol.

Another data set deals with wt KIT kinase (Homo sapiens (Human), UniProt P10721). The experiment in a line: Wild-type KIT binding assay (Kd determination, phage-tagged kinase, qPCR). The method, then:
Kd Determinations. For most assays, including wt KIT kinase, kinase-tagged T7 phage strains were prepared in an E. coli host derived from the BL21 strain. E. coli were grown to log-phase and infected with T7 phage and incubated with shaking at 32° C. until lysis. […] The liganded beads were blocked with excess biotin and washed with blocking buffer (SeaBlock (Pierce), 1% BSA, 0.05% Tween 20, 1 mM DTT) to remove unbound ligand and to reduce non-specific binding. […] Test compounds were prepared as 111× stocks in 100% DMSO. Kds were determined using an 11-point 3-fold compound dilution series with three DMSO control points. […] The compounds were then diluted directly into the assays such that the final concentration of DMSO was 0.9%. All reactions were performed in polypropylene 384-well plate. Each was a final volume of 0.02 ml. […] The kinase concentration in the eluates was measured by qPCR.
Binding Constants (Kds). Binding constants (Kds) were calculated with a standard dose-response curve using the Hill equation: Response=Background+Signal−Background 1+(KdHill Slope/DoseHill Slope). The Hill Slope was set to −1. Curves were fitted using a non-linear least square fit with the Levenberg-Marquardt algorithm.

Chain of KIT D816V (Homo sapiens (Human), UniProt P10721, D816V/V560G) (P10721 26-976 V560G/D816V): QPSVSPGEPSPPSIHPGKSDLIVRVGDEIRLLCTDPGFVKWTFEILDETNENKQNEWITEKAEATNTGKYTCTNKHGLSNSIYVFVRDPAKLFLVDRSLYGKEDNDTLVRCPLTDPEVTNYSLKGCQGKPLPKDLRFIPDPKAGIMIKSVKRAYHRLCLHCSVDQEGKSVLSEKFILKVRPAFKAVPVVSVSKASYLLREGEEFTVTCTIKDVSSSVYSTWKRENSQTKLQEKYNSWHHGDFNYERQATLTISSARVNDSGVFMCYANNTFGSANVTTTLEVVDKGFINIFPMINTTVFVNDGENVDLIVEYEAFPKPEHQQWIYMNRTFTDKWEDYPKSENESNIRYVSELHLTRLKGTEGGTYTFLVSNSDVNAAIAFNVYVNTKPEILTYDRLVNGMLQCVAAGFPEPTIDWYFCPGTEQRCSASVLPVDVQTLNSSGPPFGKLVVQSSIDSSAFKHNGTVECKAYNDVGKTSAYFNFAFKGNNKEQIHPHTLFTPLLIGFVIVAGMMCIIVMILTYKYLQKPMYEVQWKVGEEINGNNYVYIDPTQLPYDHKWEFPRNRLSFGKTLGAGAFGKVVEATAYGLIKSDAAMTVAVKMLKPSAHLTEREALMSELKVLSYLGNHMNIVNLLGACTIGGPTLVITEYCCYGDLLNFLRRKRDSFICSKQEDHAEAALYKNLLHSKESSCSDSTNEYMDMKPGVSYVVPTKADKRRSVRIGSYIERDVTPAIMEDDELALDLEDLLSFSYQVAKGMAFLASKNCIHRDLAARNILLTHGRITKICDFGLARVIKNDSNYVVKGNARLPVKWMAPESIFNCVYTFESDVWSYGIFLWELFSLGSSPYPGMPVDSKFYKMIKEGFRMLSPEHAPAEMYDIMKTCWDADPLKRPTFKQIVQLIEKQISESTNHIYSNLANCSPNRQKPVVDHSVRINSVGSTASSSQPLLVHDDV
Chain of KIT D816V (Homo sapiens (Human), UniProt P10721, D816V) (P10721 26-976 D816V): as the sequence (P10721 26-976 V560G/D816V) above, with G535V counted along it
Chain of wt KIT kinase (P10721 26-976): as the sequence (P10721 26-976 V560G/D816V) above, with G535V, V791D counted along it
Chain of CYP2D6 (P10635 whole entry): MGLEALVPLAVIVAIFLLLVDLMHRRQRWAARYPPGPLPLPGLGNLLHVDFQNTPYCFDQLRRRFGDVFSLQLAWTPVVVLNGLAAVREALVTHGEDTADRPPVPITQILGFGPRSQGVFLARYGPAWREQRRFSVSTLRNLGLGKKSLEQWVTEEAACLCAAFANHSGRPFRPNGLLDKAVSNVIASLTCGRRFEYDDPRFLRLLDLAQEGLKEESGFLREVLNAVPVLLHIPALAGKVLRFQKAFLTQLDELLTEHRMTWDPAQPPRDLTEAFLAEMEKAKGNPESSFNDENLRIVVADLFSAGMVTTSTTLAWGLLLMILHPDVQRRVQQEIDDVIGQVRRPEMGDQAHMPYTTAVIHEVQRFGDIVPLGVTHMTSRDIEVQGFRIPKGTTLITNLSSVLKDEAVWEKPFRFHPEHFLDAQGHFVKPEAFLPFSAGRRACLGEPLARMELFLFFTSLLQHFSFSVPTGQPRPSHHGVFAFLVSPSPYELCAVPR
Chain of CYP2C9 (P11712 whole entry): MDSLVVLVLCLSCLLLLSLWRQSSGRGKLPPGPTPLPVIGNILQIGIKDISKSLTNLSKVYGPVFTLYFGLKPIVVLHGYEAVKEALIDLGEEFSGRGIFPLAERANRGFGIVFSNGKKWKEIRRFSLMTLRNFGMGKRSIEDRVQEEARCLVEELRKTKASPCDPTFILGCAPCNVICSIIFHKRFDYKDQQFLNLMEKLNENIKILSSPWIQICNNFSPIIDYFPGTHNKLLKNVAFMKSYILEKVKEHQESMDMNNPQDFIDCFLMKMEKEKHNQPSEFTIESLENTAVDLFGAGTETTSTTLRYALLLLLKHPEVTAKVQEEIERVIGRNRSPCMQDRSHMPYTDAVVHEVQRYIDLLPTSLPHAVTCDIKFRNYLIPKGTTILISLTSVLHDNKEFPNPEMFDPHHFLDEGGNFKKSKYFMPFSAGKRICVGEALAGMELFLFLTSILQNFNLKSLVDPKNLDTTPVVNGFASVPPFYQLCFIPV
Chain of PDGFRα D842V (P16234 24-1089 D842V): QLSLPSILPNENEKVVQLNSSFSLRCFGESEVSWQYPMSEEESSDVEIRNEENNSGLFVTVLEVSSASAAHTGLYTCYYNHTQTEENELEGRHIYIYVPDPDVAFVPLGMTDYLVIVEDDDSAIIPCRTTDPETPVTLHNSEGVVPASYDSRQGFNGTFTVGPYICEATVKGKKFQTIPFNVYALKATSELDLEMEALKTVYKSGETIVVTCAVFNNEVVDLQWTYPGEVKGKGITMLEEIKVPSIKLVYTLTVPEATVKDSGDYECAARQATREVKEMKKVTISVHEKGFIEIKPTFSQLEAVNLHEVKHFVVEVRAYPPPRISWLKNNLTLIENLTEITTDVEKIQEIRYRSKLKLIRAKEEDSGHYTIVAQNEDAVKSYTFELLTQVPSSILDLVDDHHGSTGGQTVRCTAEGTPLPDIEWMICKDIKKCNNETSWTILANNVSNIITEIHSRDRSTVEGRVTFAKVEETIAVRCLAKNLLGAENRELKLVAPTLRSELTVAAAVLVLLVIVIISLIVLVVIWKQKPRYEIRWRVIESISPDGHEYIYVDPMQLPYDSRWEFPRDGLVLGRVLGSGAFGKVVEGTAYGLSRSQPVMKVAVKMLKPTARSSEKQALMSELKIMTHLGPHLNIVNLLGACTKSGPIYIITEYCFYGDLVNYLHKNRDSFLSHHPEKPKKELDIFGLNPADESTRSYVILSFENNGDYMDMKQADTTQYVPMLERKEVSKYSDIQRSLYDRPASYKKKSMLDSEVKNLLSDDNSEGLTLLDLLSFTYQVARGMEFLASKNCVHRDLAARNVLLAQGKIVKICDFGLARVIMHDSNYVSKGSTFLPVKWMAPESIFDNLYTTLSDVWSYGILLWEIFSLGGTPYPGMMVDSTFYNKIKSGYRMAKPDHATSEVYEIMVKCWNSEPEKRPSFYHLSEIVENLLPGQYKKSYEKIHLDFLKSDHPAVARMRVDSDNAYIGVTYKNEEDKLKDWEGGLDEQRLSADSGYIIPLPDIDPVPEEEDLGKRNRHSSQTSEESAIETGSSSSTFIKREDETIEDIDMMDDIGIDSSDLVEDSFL

Take `C[C@](N)(c1ccc(F)cc1)c1cnc(N2CCN(c3ncnn4cc(-c5cnn(CCO)c5)cc34)CC2)nc1` [Compound 4, (S)-2-(4-(4-(4-(5-(1-amino-1-(4-fluorophenyl)ethyl)pyrimidin-2-yl)piperazin-1-yl)pyrrolo[2,1-f][1,2,4]triazin-6-yl)-1H-pyrazol-1-yl)ethanol]: the IC50 against CYP2D6 worked out at 10000 nM; against CYP2C9, 7130 nM. For the same compound, the clearance in data set [1] (Sprague-Dawley, blood, rat, iv 1 mg/kg, read-out: Rat IV PK Cl) was 12 mL/min/kg. In data set [1] (Sprague-Dawley, blood, rat, oral 2.5 mg/kg vs iv 1 mg/kg), this compound registered a bioavailability of 80%. Also, the “Rat IV PK unbound clearance (Clu)” value in data set [1] (iv 1 mg/kg, Clu=Cl/fu,plasma) worked out at 582 mL/min/kg.
On to `CCn1cc(-c2cc3c(N4CCN(c5ncc([C@@](C)(N)c6ccc(F)cc6)cn5)CC4)ncnn3c2)cn1` [Compound 63, reference compound], for which the IC50 at KIT D816V [2] is no more than 0.3 nM; at PDGFRα D842V, no more than 0.3 nM; at KIT D816V [3] it was less than 4.5 nM. Further, the dissociation constant Kd on wt KIT kinase lay within 15.1 to 20 nM.
